In PubChem BioAssay AID504609 (Sanford-Burnham Center for Chemical Genomics, 2011) one finds IC50 data, which are given here for 20 compounds.

One may read the IC50 as the midpoint of a concentration-inhibition curve.

Activity calls are given as the source filed them.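 Rule for the calls: active = IC50 under a set limit, which marks the compound as nonspecific in this counterscreen; inactive = the rest.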

The experiment concerns the target SaOS-2 dox-inducible full-length luciferase, luminescence counterscreen. In words: luminescence decrease from intact luciferase reporter – cell-based, SaOS-2, dox-inducible, counter-screen for Mdm2/MdmX interaction inhibitor project, dose response (AID 504609). On the technique in general: A reporter such as luciferase makes a cellular process visible.
On to `COc1ccc(-c2cc3c(=O)n(CC(=O)NCCCN4CCC(N5CCCCC5)CC4)nc(C)n3n2)cc1`, for which the half-inhibitory concentration (IC50) was 15.5 µM. As for `CCOc1cc(N2CCOCC2)c(OCC)cc1NC(=O)COc1cccc2cccnc12`, the IC50 was 12.5 µM. The value for `O=[N+]([O-])c1ccccc1S(=O)(=O)Nc1cccc2cccnc12` was 2.67 µM. Regarding `CC1(C)C(=O)Nc2ccccc2N1C(=O)Cn1ncc(Cl)c(Cl)c1=O`, the IC50 was 8.88 µM.

`COc1ccc2c(c1)C1(Nc3ccccc3-c3nc4ccccc4n31)C(=O)N2C` (stereo not given): the IC50 was 1.75 µM. For `CCOC(=O)/C=C/C(=O)OCC(=O)NC(c1ccccc1)c1ccccc1`, the IC50 is 2.41 µM. For `COCCn1c(C)cc(C2=NNC(=Nc3ccccc3F)SC2)c1C`, the IC50 was 0.137 µM. As for `CC(=O)c1ccc(-c2ccc(C(=O)Nc3nc(-c4ccccn4)cs3)o2)cc1`, the IC50 is 5.78 µM.

In the case of `CCN(CC)S(=O)(=O)c1ccc(NC(=O)c2cccnc2Cl)c(NC(=O)c2cccnc2Cl)c1`, the IC50 was 5.16 µM. On to `Cc1cccn2c(=O)c3cc(C(=O)NCCc4ccccc4)c(=N)n(Cc4ccco4)c3nc12`, for which the IC50 was 3.58 µM. With `C/C(=N\Nc1cc(C)nc(-c2ccccc2O)n1)c1ccccc1O`, the IC50 is 11.5 µM. Under `CCN1C/C(=C/c2ccc(OC)c(O)c2)C(=O)/C(=C/c2ccc(OC)c(O)c2)C1` stands 7.64 µM; under `O=C(/C=C/c1c(F)cccc1Cl)c1ccc(O)cc1`, 6.23 µM; under `CC(C)c1cccc(O)c(=O)c1`, 2.27 µM.

Regarding `COc1cc(-c2nc(-c3ccc(NC(=O)c4ccc5c(c4)OCO5)cc3)no2)cc(OC)c1OC`, the IC50 is 3.87 µM. `O=c1oc2ccccc2cc1-c1cn(-c2ccccc2)c(=S)[nH]1`: the IC50 was 2.38 µM. Consider `CCOC(=O)c1ccc(Nc2nc(N)c3cc(OC)c(OC)cc3n2)cc1`, for which the IC50 was > 79 µM (inactive).

Turning to `O=C(CN1CCCc2ccccc21)N/N=C/c1c(O)ccc2ccccc12`, the IC50 was 1.57 µM. With `Cc1nc(NC2=NCN(CCCN3CCOCC3)CN2)nc2c(C)cccc12`, the IC50 is 13.8 µM. The value for `Cn1nc([N+](=O)[O-])nc1Sc1nnc(-c2ccccc2)o1` was 7.44 µM.
